Drawing on patent US20240415918A1, “Polypeptide and its use as a CCK receptor agonist/antagonist” (Centre for Regenerative Medicine & Health, Hong Kong …, priority 2021, published 2024), this text covers EC50 for 13 molecules.

Where a SMILES comes first, the peptide text is derived from it. [ ]: non-standard residue; d: D form. The star is where a group is joined. dTrp(5-OH) = N[C@H](Cc1c[nH]c2ccc(O)cc12)C(=O)O; Phe(3-Br) = N[C@@H](Cc1cccc(Br)c1)C(=O)O; dNMeW = CN[C@H](Cc1c[nH]c2ccccc12)C(=O)O; Fmoc = O=C(OCC1c2ccccc2-c2ccccc21)*; Nle = CCCC[C@H](N)C(=O)O Some results are limits rather than exact numbers.

The target of experiment [1] is T1, CCK-B receptors (CHO-CCK) (Homo sapiens, UniProt P32239).
T1 construct: expressed in transfected cells; host or cells: CHO (CHO-CCK model cells)
T1 sequence (P32239 1-447): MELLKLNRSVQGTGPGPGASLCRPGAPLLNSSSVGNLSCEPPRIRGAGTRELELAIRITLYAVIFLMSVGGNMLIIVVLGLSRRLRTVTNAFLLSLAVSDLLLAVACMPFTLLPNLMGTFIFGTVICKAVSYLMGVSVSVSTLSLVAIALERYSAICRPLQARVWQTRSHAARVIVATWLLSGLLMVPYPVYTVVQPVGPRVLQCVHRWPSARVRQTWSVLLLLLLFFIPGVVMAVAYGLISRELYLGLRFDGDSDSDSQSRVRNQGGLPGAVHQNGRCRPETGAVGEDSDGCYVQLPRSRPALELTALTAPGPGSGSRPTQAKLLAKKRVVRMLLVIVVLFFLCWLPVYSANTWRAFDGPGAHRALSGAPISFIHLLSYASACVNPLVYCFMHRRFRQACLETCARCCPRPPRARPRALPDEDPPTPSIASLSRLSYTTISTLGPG
In words: Calcium flux (Fluo-8) agonist test on CHO-CCK model cells. Type of experiment: cell-based. The conditions noted are these: CHO-CCK cells, Fluo-8 calcium flux. In outline:
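Agonist-mode Fluo-8 calcium flux read on CHO-CCK cells after dye loading 30 min at 37 °C plus 30 min at room temperature.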

Experiment [2] deals with T1, CCK-B receptors (CHO-CCK). Nature of the experiment: Calcium flux (Fluo-8) antagonist test on CHO-CCK model cells in presence of CCK8. Type of experiment: cell-based. Background: A change in cytosolic calcium serves as a functional read-out for many receptors and channels.
[3] abbreviates: in presence of 10 nM CCK8, bound in μM.

The term EC50 denotes the concentration at which the effect is half-maximal. As to `CCCC[C@H](NC(=O)[C@@H](Cc1c[nH]c2ccc(O)cc12)NC(C)=O)C(=O)N[C@@H](CCC(=O)O)C(=O)N[C@@H](Cc1cccc(Br)c1)C(N)=O` [HT-240, Ac-(5-HTP)-Nle-Glu-Phe(3-Br)-NH2] (Ac-[dTrp(5-OH)][Nle]E[Phe(3-Br)]-NH2), the values for the EC50 in experiment [1] (100% control = 20 nM CCK8) and in experiment [2] (setting [3]) were 0.527 µM and over 10 µM, respectively.

On to `CCCC[C@H](NC(=O)[C@H](Cc1c[nH]c2ccccc12)NC(C)=O)C(=O)N[C@@H](CCC(=O)O)C(=O)N[C@@H](Cc1cn(C)c2ccccc12)C(N)=O` [HT-241, Ac-D-Trp-Nle-Glu-(1-Me-Trp)-NH2], for which the EC50 in experiment [1] (100% control = 20 nM CCK8) is 3.55 µM; in experiment [2] (setting [3]) it was over 10 µM.

Take `CCCC[C@H](NC(=O)[C@H](Cc1c[nH]c2ccccc12)NC(C)=O)C(=O)N[C@@H](CCC(=O)O)C(=O)N[C@@H](Cc1c(C)[nH]c2ccccc12)C(N)=O` [HT-242, Ac-D-Trp-Nle-Glu-(2-Me-Trp)-NH2]: the EC50 was over 10 µM in experiment [1] (bound in μM) and 1.31 µM in experiment [2] (in presence of 10 nM CCK8).

In the case of `CCCC[C@H](NC(=O)[C@@H](Cc1cn(C)c2ccccc12)NC(C)=O)C(=O)N[C@@H](CCC(=O)O)C(=O)N[C@@H](Cc1cccc(Br)c1)C(N)=O` [HT-243, Ac-(1-Me-Trp)-Nle-Glu-Phe(3-Br)-NH2], the EC50 in experiment [1] (100% control = 20 nM CCK8) was found to be 0.44 µM; in experiment [2] (in presence of 10 nM CCK8) it was 1.41 µM.

With `CCCC[C@H](NC(=O)[C@@H](Cc1c(C)[nH]c2ccccc12)NC(C)=O)C(=O)N[C@@H](CCC(=O)O)C(=O)N[C@@H](Cc1cccc(Br)c1)C(N)=O` [HT-244, Ac-(2-Me-Trp)-Nle-Glu-Phe(3-Br)-NH2], the EC50 in experiment [1] (100% control = 20 nM CCK8) came to 7.32 µM; in experiment [2] (in presence of 10 nM CCK8) it was 1.36 µM.

Take `CCCC[C@H](NC(=O)[C@@H](Cc1cn(C)c2ccccc12)NC(C)=O)C(=O)N[C@@H](CCC(=O)O)C(=O)N[C@@H](Cc1cn(C)c2ccccc12)C(N)=O` [HT-245, Ac-(1-Me-Trp)-Nle-Glu-(1-Me-Trp)-NH2]: the EC50 is over 10 µM in experiment [1] (bound in μM) and 1.76 µM in experiment [2] (in presence of 10 nM CCK8).

`CCCC[C@H](NC(=O)[C@@H](Cc1cn(C)c2ccccc12)NC(C)=O)C(=O)N[C@@H](CCC(=O)O)C(=O)N[C@@H](Cc1c(C)[nH]c2ccccc12)C(N)=O` [HT-246, Ac-(1-Me-Trp)-Nle-Glu-(2-Me-Trp)-NH2]: the values for the concentration giving a half-maximal response (EC50) in experiment [1] (bound in μM) and in experiment [2] (in presence of 10 nM CCK8) were over 10 µM and 2.13 µM, respectively.

For the molecule `CCCC[C@H](NC(=O)[C@@H](Cc1c(C)[nH]c2ccccc12)NC(C)=O)C(=O)N[C@@H](CCC(=O)O)C(=O)N[C@@H](Cc1cn(C)c2ccccc12)C(N)=O` [HT-247, Ac-(2-Me-Trp)-Nle-Glu-(1-Me-Trp)-NH2], the figures for the EC50 in experiment [1] (100% control = 20 nM CCK8) and in experiment [2] (in presence of 10 nM CCK8) were 1.9 µM and 0.62 µM, respectively.

As for `CCCC[C@H](NC(=O)[C@@H](Cc1c(C)[nH]c2ccccc12)NC(C)=O)C(=O)N[C@@H](CCC(=O)O)C(=O)N[C@@H](Cc1c(C)[nH]c2ccccc12)C(N)=O` [HT-248, Ac-(2-Me-Trp)-Nle-Glu-(2-Me-Trp)-NH2], the EC50 was found to be 0.0331 µM in experiment [1] (100% control = 20 nM CCK8) and 0.47 µM in experiment [2] (in presence of 10 nM CCK8).

Regarding `CCCC[C@H](NC(=O)[C@@H](Cc1c[nH]c2ccccc12)N(C)C(=O)OCC1c2ccccc2-c2ccccc21)C(=O)N[C@@H](CC(=O)O)C(=O)N[C@@H](Cc1cccc(Br)c1)C(N)=O` [HT-249, Fmoc-(N-Me-D-Trp)-Nle-Asp-Phe(3-Br)-NH2] (Fmoc-[dNMeW][Nle]D[Phe(3-Br)]-NH2), the EC50 in experiment [1] (100% control = 20 nM CCK8) turned out to be 0.00226 µM; in experiment [2] (in presence of 10 nM CCK8), 4.55 µM.

For the molecule `CCCC[C@H](NC(=O)[C@H](Cc1c[nH]c2ccccc12)N(C)C(=O)CNC(=O)OCC1c2ccccc2-c2ccccc21)C(=O)N[C@@H](CC(=O)O)C(=O)N[C@@H](Cc1cccc(Br)c1)C(N)=O` [HT-250, Fmoc-Gly-(N-Me-D-Trp)-Nle-Asp-Phe(3-Br)-NH2], the EC50 in experiment [1] (100% control = 20 nM CCK8) turned out to be 0.386 µM; in experiment [2] (in presence of 10 nM CCK8) it was 2.85 µM.

As to `CCCC[C@H](NC(=O)[C@@H](Cc1c[nH]c2ccccc12)N(C)C(=O)CNC(=O)OCC1c2ccccc2-c2ccccc21)C(=O)N[C@@H](CC(=O)O)C(=O)N[C@@H](Cc1cccc(Br)c1)C(N)=O` [HT-251, Fmoc-Gly-(N-Me-Trp)-Nle-Asp Phe(3-Br)-NH2], the values for the EC50 in experiment [1] (100% control = 20 nM CCK8) and in experiment [2] (in presence of 10 nM CCK8) were 0.00592 µM and 1.61 µM, respectively.

Regarding `CCCC[C@H](NC(=O)[C@@H](Cc1c[nH]c2ccccc12)N(C)C(=O)CN(C)C(=O)OCC1c2ccccc2-c2ccccc21)C(=O)N[C@@H](CC(=O)O)C(=O)N[C@@H](Cc1cccc(Br)c1)C(N)=O` [HT-252, Fmoc-(N-Me-Gly)-(N-Me-Trp)-Nle-Asp-Phe(3-Br)-NH2], the EC50 in experiment [1] (100% control = 20 nM CCK8) worked out at 0.255 µM; in experiment [2] (in presence of 10 nM CCK8), 1.03 µM.
